According to PMC13672995, “NCR13 peptide protects soybean against Cercospora sojina using multi-faceted modes of action and additive interaction with chemical fungicides” (Journal of Experimental Botany, 2025):
“Also recorded” adds a separate entry of the source. Where no end group is shown, it is not given here.

Assays:
[1] = tested on: protein translation in C. sojina Cs350 germlings; assay: In vivo protein translation inhibition assay (puromycin labeling); type: cell-based, Cercospora sojina; details: germlings treated 2 h at 6 µM and 12 µM, puromycin 1 mM 3 h; n=3
Protocol: To assess the translation inhibition of NCR13_PFV1 in C. sojina Cs350, we adapted a recently established puromycin labeling protocol in B. cinerea with minor modifications ([Godwin and Shah, 2025]). Cercospora sojina spores at a concentration of ∼10^5 ml^–1 were inoculated in SFM and cultured for 18 h. The germlings were then treated with NCR13_PFV1 (6 µM and 12 µM) or cycloheximide (50 µg ml^–1) (positive control) for 2 h, followed by the addition of puromycin (1 mM) and incubation for 3 h at 28 °C. After incubation, the germlings were washed three times with sterile water. Total proteins were extracted from germlings using lysis buffer (100 mM HEPES, 5 mM EDTA, 0.1% Triton-X 100, and yeast/fungal protease inhibitor cocktail) and the concentration was estimated using the Pierce BCA Protein Assay Kit (Thermo Scientific). Equal amounts (10 µg) of fungal protein were separated on a 4–20% mini-PROTEAN TGX stain-free protein gel (Bio-Rad, Cat No: 4568094). Western blot analysis was performed using an anti-puromycin antibody (Cell Signaling Technology, Cat No: 40939S), and signal intensities were quantified using Fiji ([Schindelin et al., 2012]).

C. sojina Cs350 cells = assay: Uptake and subcellular localization by time-lapse confocal microscopy; type: cell-based, Cercospora sojina; details: DyLight550-labeled peptide; nuclear localization mostly at 0.75 μM (0.5× MIC); Hoechst, CMAC and BODIPY co-staining
Protocol: NCR13_PFV1 was labeled with DyLight550 amine-reactive dye following the manufacturer’s instructions (Thermo Scientific), and time-lapse confocal microscopy was performed to measure the uptake and subcellular localization of the peptide in C. sojina Cs350 cells. The nuclear staining dye Hoechst 3352 was used along with DyLight550-NCR13_PFV1 to determine the subcellular localization of NCR13_PFV1 in C. sojina. Conidia grown for 6–8 h were treated with 0.75 µM Dylight550-NCR13_PFV1 and incubated for 30 min, after which 4 µM Hoechst 3352 dye was added for another 15 min. Treated conidia were used to capture z-stacks at specific time intervals using a Leica SP8-X confocal microscope (×63 water immersion objective lens, HC PL Apochromat CS2) in fluorescence and transmitted light mode. The excitation and emission wavelengths of DyLight550-NCR13_PFV1 and Hoechst 3352 were 550 nm, 560–660 nm, and 405 nm, 420–500 nm, respectively. Similarly, to determine the subcellular localization of NCR13_PFV1 in other organelles, C. sojina conidia were also stained with the vacuole-specific dye CMAC and the lipid staining dye BODIPY 493/503 (Thermo Scientific). The excitation and emission wavelengths for CMAC and BODIPY were 405 nm, 420–500 nm, and 493 nm, 505–540 nm, respectively.

## TKPCQSDKDCKKFACRKPKVPKCINGFCKCVR (disulfide (positions not given here)) [NCR13_PFV1, chickpea nodule-specific cysteine-rich 32 amino acid peptide, disulfide cross-linking variant 1, expressed in Pichia pastoris]
[1]
  concentration from which protein translation inhibition was observed: 6 µM
C. sojina Cs350 cells
  subcellular localization: localized to the nucleus; also recorded: no evidence of co-localization of the peptide with either lipid bodies or the vacuole
